Test results published in US10023593B2, “ALK kinase inhibitor, and preparation method and uses thereof” (BEIJING PEARL BIOTECHNOLOGY LIMITED LIABILITY COMPANY, priority 2014, dated 2018).

How the values were obtained:
[1] = molecular target: T1, Wild Type ALK kinase (Homo sapiens, UniProt Q9UM73); test: HTRF KinEASE-TK assay, inhibitory activity on wild type ALK kinase; format: biochemical; conditions: wild type ALK 1 ng/μl, substrate 1 μM, 30° C. 35 minutes, read-out: Inhibition on ALK kinases (wildtype), IC50
T1 construct: purchased Sino-US Crown Bioscience, Inc. batch number ALK 20110607
T1 sequence (Q9UM73 19-1620): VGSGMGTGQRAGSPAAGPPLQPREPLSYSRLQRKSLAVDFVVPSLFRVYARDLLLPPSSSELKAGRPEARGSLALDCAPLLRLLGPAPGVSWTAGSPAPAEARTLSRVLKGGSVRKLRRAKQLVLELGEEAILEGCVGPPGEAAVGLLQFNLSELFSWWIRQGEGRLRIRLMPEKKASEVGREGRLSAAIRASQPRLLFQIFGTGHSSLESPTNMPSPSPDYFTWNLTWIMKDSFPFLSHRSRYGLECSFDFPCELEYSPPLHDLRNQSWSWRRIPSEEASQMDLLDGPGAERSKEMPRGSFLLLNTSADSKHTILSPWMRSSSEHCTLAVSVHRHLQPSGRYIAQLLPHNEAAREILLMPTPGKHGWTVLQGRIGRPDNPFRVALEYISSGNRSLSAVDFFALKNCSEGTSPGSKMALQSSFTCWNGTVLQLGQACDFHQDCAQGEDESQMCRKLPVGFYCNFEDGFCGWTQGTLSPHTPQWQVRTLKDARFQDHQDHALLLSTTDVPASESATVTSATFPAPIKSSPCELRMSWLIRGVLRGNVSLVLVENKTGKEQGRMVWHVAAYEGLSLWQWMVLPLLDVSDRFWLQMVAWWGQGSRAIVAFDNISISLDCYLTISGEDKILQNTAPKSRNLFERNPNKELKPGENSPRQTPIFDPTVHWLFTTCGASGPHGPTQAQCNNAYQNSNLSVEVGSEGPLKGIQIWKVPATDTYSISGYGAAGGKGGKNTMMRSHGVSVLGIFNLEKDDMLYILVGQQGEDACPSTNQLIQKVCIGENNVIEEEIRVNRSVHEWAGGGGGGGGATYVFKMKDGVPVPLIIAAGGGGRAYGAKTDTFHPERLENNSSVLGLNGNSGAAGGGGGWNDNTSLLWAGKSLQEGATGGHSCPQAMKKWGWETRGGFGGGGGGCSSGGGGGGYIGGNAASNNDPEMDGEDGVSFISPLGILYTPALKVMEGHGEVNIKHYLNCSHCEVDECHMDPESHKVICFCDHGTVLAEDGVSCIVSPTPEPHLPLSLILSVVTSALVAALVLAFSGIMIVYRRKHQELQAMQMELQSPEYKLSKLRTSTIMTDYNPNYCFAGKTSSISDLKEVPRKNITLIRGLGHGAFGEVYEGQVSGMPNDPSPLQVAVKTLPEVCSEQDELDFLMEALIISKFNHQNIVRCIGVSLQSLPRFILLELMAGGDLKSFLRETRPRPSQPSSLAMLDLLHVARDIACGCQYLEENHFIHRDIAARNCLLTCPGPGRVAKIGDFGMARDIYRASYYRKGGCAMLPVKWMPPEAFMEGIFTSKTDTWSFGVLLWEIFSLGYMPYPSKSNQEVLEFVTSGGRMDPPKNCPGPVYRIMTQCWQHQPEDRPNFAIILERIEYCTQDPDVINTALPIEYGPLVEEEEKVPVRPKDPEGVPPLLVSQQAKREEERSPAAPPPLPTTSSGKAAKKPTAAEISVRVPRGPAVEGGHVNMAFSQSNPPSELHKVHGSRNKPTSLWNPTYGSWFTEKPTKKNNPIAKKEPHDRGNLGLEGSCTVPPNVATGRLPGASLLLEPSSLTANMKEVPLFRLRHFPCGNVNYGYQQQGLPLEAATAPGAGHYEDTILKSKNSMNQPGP
Text: 1. Inhibitory Activities of the Compounds of the Present Invention on Wild Type ALK Kinases
? experimental method ? HTRF KinEASE™-TK Assay kit from Cisbio company was used to detect inhibitory activities of the compounds on wildtype ALK kinases (wild type ALK kinases).
(§1) ? instrument ? Envision 2104 plate reader from PerKinElmer company.
(§2) ? experiment material ? HTRF KinEASE™-TK Assay Kit (Cisbio company, catalog No. 62TK0PEC); Wild Type ALK kinase (produced by Sino-US Crown Bioscience, Inc., batch number ALK 20110607); DTT (Gibco BRL company, catalog No. 15508-012); MgCl2 (Sigma Aldrich company, catalog No. M-2670); ATP (Sigma Aldrich company, catalog No. A-7699); DMSO (AMRESCO company, catalog No. 0231); EDTA (AMRESCO company, catalog No. 0105); 96 wells plates (for diluting compounds) (CITOTEST company, catalog No. Ref36020096D); OptiPlate™-384 (White), PerkinElmer company, catalog No. P12-004)
(§3) ? experimental condition ? Compounds (the final concentration of DMSO was 1%), the reaction substrate (the final concentration was 1 μM), ATP (the final concentration was 2004), and Wildtype ALK kinases (the final concentration was 1 ng/μl) were mixed respectively in a final volume of 10 μl reaction system (containing 5 mM MgCl2, 1× Kinase buffer, and 1 mM DTT). The mixture was reacted at 30° C. for 35 minutes after shaking for 30 seconds. After completion of the reaction, each well was added with 5 μl Sa-XL665 and 5 μl TK Antibody-Eu(K), and placed in the dark for 60 minutes to end the reaction after uniform mixing. The data was read from PerkinElmer EnVision plate reader ([…]), the 665/615 ratio was calculated, and the data was analyzed.
(§4) ? tested samples ? Compounds from the examples.
(§5) ? data analysis ? Minimum 665/615 ratio (Rmin, 665/615 ratio under the condition that 10.4 μM positive control drug LDK-378 was added)
(§6) Maximum 665/615 ratio (Rmax, 665/615 ratio under the condition that no compound was added)
(§7) Tested 665/615 ratio (Rcompound, 665/615 ratio under the condition that a given concentration of compound was added) Inhibition rate (%)=[1−(Rcompound−Rmin)/(Rmax−Rmin)]×100
(§8) ? data processing ? IC50 of compounds was calculated by using XLfit program in Excel.

[2] = system: NCI-H2228 cell line; test: CellTiter-Glo cell proliferation inhibition on NCI-H2228 cell line; format: cell-based; conditions: Homo sapiens, NCI-H2228, 96 h, NCI-H2228 cells, 5000 cells/well, 4 days drug treatment
Summary of the method: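 NCI-H2228 cells, 5000/well in RPMI-1640 + 10% FBS, treated with compounds 2 h after seeding (0.5% DMSO final) for 4 days at 37° C. Viability by CellTiter-Glo luminescence; inhibition relative to DMSO control, IC50 from curve fit.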

[3] = molecular target: T2, L1196M mutant ALK kinase (Homo sapiens, UniProt Q9UM73, L1196M); test: HTRF KinEASE-TK assay, inhibitory activity on L1196M mutant ALK kinase; format: biochemical; conditions: L1196M mutant ALK 1 ng/μl, substrate 1 μM, ATP 5 μM, 30° C. 35 minutes, read-out: Inhibition on ALK kinases (L1196M mutant), IC50
T2 construct: purchased Sino-US Crown Bioscience, Inc. batch number ALKm_20110923
T2 sequence (Q9UM73 19-1620 L1196M): as the sequence (Q9UM73 19-1620) above, with L1178M counted along it
Text: 2. Inhibitory Activities of the Compounds of the Present Invention on L1196M Mutant ALK Kinases
? experimental method ? HTRF KinEASE™-TK Assay kit from Cisbio company was used to detect inhibitory activities of the compounds on L1196M mutant ALK kinases.
as §1
as §2, with “L1196M mutant” for “Wild Type”, “ALKm_20110923);” for “ALK 20110607);”, “A-7699, batch number 051M7014V);” for “A-7699);”
as §3, with “5 μM),” for “2004),”, “L1196M mutant” for “Wildtype”
as §4, §5, §6, §7, §8

Row | IC50 [1] [µM] | IC50 [2] [µM] | IC50 [3] [µM] | SMILES
1 | 0.012 | 0.66 | 0.028 | Cc1cc(Nc2ncc(Cl)c(Nc3cn(C)nc3S(=O)(=O)C(C)C)n2)c(C(C)C)cc1C1CCN(C)CC1 [Final product 33]
2 | 0.002 | 0.076 | 0.015 | Cc1cc(Nc2ncc(Cl)c(Nc3cn(C)nc3S(=O)(=O)C3CCC3)n2)c(OC2CC2)cc1C1CCN(C)CC1 [Final product 52]
3 | 0.002 | 0.081 | 0.018 | Cc1cc(Nc2ncc(F)c(Nc3cn(C)nc3S(=O)(=O)C(C)C)n2)c(OC2CC2)cc1C1CCN(C)CC1 [Final product 70]
4 | 0.001 | 0.069 | 0.006 | Cc1cc(Nc2ncc(C)c(Nc3cn(C)nc3S(=O)(=O)C(C)C)n2)c(OC2CC2)cc1C1CCN(C)CC1 [Final product 72]
5 | 0.002 | 0.048 | 0.005 | Cc1cc(Nc2ncc(Cl)c(Nc3cn(C)nc3S(=O)(=O)C(C)C)n2)c(OC2CC2)cc1C1CCN(C)C(C)C1 (centres unmarked) [Final product 92]
6 | 0.006 | 0.15 | 0.022 | Cc1nc(S(=O)(=O)C(C)C)c(Nc2nc(Nc3cc(C)c(C4CCN(C)CC4)cc3OC3CC3)ncc2Cl)s1 [Final product 113]
7 | 0.002 |  | 0.005 | Cc1cc(Nc2ncc(Cl)c(Nc3cn(C)nc3S(=O)(=O)C(C)C)n2)c(OC2CC2)cc1C1CCN(C(C)C)CC1 [Final product 123, 5-chloro-N^2-[2-cyclopropoxy-4-(1-isopropylpiperidin-4-yl)-5-methyl-phenyl]-N^4-[1-methyl-3-(isopropylsulfonyl)-1H-pyrazol-4-yl]-pyrimidin-2,4-diamine]
8 | 0.026 | 0.149 | 0.029 | Cc1cc(Nc2ncc(Cl)c(Nc3cn(C)nc3S(=O)(=O)C(C)C)n2)c(OC2CC2)cc1C1CCN(C(=O)C(C)C)CC1 [Final product 163, 1-isobutyryl-4-(4-(5-chloro-4-(3-(isopropylsulfonyl)-1-methyl-1H-pyrazol-4-amino)pyrimidin-2-amine)-5-cyclopropoxy-2-methylphenyl)piperidine]
9 | 0.068 | 0.133 | 0.043 | Cc1cc(Nc2ncc(Cl)c(Nc3cn(C)nc3S(=O)(=O)CC(C)C)n2)c(OC(C)C)cc1C1CN(S(C)(=O)=O)C1 [Final product 169]
10 | 0.008 | 0.06 | 0.017 | CCN(CC)[C@H]1CC[C@@H](c2cc(OC3CC3)c(Nc3ncc(Cl)c(Nc4cn(C)nc4S(=O)(=O)C(C)C)n3)cc2C)CC1 [Final product 191]
11 | 0.009 | 0.068 | 0.012 | CCN(CC)[C@H]1CC[C@H](c2cc(OC3CC3)c(Nc3ncc(Cl)c(Nc4cn(C)nc4S(=O)(=O)C(C)C)n3)cc2C)CC1 [Final product 192]
12 | 0.003 | 0.071 | 0.009 | Cc1cc(Nc2ncc(C(F)(F)F)c(Nc3cn(C)nc3S(=O)(=O)C(C)C)n2)c(OC2CC2)cc1C1CCN(C)CC1 [Final product 209, N^2-[2-cyclopropoxy-4-(1-methyl-piperidin-4-yl)-5-methylphenyl]-N^4-[1-methyl-3-(isopropylsulfonyl)-1H-pyrazol-4-yl]-5-(trifluoromethyl)pyrimidin-2,4-diamine]
13 | 0.002 | 0.087 | 0.004 | Cc1cc(Nc2ncc(C#N)c(Nc3cn(C)nc3S(=O)(=O)C(C)C)n2)c(OC2CC2)cc1C1CCN(C)CC1 [Final product 210, N^2-[2-cyclopropoxy-4-(1-methyl-piperidin-4-yl)-5-methyl-phenyl]-N^4-[1-methyl-3-(isopropylsulfonyl)-1H-pyrazol-4-yl]-5-(cyano)pyrimidin-2,4-diamine]
14 | 0.003 | 0.272 | 0.011 | Cc1cc(Nc2ncc(Cl)c(Nc3cn(C)nc3C#N)n2)c(OC2CC2)cc1C1CCN(C)CC1 [Final product 211, 5-chloro-N^2-[2-cyclopropoxy-4-(1-methyl-piperidin-4-yl)-5-methyl-phenyl]-N^4-[1-methyl-3-cyano-1H-pyrazol-4-yl]-pyrimidin-2,4-diamine]
15 | 0.013 | 0.725 | 0.037 | Cc1cc(Nc2nc(Nc3cc(C)c(C4CCN(C)CC4)cc3OC(C)C)ncc2Cl)n[nH]1 [Final product 212, 5-chloro-N^2-[2-isopropoxy-4-(1-methyl-piperidin-4-yl)-5-methyl-phenyl]-N^4-[5-methyl-1H-pyrazol-3-yl]-pyrimidin-2,4-diamine, reference compound]
16 | 0.019 | 0.964 | 0.022 | Cc1cc(Nc2nc(Nc3cc(C)c(C4CCN(C(C)C)CC4)cc3C)ncc2Cl)n[nH]1 [Final product 213, reference compound]
17 | 0.022 | 1.24 | 0.054 | Cc1cc(Nc2nc(Nc3cc(C)c(C4CCCNC4)cc3C)ncc2Cl)n[nH]1 (centres unmarked) [Final product 214, reference compound]
18 | 0.028 | 1.04 | 0.039 | Cc1cc(Nc2nc(Nc3cc(C)c(C4CCN(CCO)CC4)cc3C)ncc2Cl)n[nH]1 [Final product 215, reference compound]
19 | 0.017 | 0.948 | 0.028 | CNC(=O)CN1CCC(c2cc(OC)c(Nc3ncc(Cl)c(Nc4cc(C)n[nH]4)n3)cc2C)CC1 [Final product 216, reference compound]
20 | 0.02 | 1.13 | 0.069 | Cc1cc(Nc2nc(Nc3cc(C)c(C4CCN(S(C)(=O)=O)CC4)cc3C)ncc2Cl)n[nH]1 [Final product 217, reference compound]
21 | 0.027 | 1.07 | 0.049 | Cc1cc(Nc2nc(Nc3cc(C)c([C@H]4CC[C@H](N5CCN(C)CC5)CC4)cc3F)ncc2Cl)[nH]n1 [Final product 218, reference compound]
